Measured values taken from PubChem BioAssay AID248 (DTP/NCI, 2004).
“And” between values parts separate entries of the source, which are not always exact repeats. Equal values may be shown once. Inconclusive results and toxic doses are left out. No stated cut-off is given here; in the data, active means T/C of 150% or more; inactive means T/C below 125%.

Test system: L1210 leukemia ip in BDF1 mice, survival T/C
Experiment: NCI In Vivo Anticancer Drug Screen. Data for tumor model L1210 Leukemia (intraperitoneal) in B6D2F1 (BDF1) mice
Conditions: endpoint: mean survival time, higher = longer survival
In short: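 Survival endpoint. Drug-treated group vs vehicle group, expressed as T divided by C. Tumor passaged by transplantation.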

[1] = dose: 75.0 mg/kg/injection, schedule: Q01DX001 (ip), vehicle: other
[2] = dose: 150.0 mg/kg/injection, schedule: Q01DX001 (ip), vehicle: other
[3] = dose: 100.0 mg/kg/injection, schedule: Q01DX009 (ip), vehicle: Klucel (hydroxypropylcellulose) (HPC)
[4] = dose: 100.0 mg/kg/injection, schedule: Q04DX003 (ip), vehicle: Klucel (hydroxypropylcellulose) (HPC)
[5] = dose: 200.0 mg/kg/injection, schedule: Q01DX009 (ip), vehicle: Klucel (hydroxypropylcellulose) (HPC)
[6] = dose: 200.0 mg/kg/injection, schedule: Q04DX003 (ip), vehicle: Klucel (hydroxypropylcellulose) (HPC)
[7] = dose: 400.0 mg/kg/injection, schedule: Q01DX009 (ip), vehicle: Klucel (hydroxypropylcellulose) (HPC)
[8] = dose: 25.0 mg/kg/injection, schedule: Q01DX009 (ip), vehicle: saline
[9] = dose: 25.0 mg/kg/injection, schedule: Q04DX003 (ip), vehicle: saline
[10] = dose: 50.0 mg/kg/injection, schedule: Q01DX009 (ip), vehicle: saline
[11] = dose: 50.0 mg/kg/injection, schedule: Q04DX003 (ip), vehicle: saline
[12] = dose: 100.0 mg/kg/injection, schedule: Q01DX009 (ip), vehicle: saline
[13] = dose: 100.0 mg/kg/injection, schedule: Q04DX003 (ip), vehicle: saline

Measured: T/C

Clc1ccc(C(c2ccccc2Cl)C(Cl)Cl)cc1 (stereo unspecified)
inactive: dose: 62.5 mg/kg/injection, schedule: Q01DX009 (sc), vehicle: steriod suspending solution 98 % of control and 101 % of control | dose: 62.5 mg/kg/injection, schedule: Q01DX010 (sc), vehicle: saline 91 % of control | dose: 62.5 mg/kg/injection, schedule: Q01DX010 (sc), vehicle: steriod suspending solution 102 % of control | dose: 125.0 mg/kg/injection, schedule: Q01DX009 (sc), vehicle: steriod suspending solution 98 % of control and 103 % of control | dose: 125.0 mg/kg/injection, schedule: Q01DX010 (sc), vehicle: saline 102 % of control | dose: 125.0 mg/kg/injection, schedule: Q01DX010 (sc), vehicle: steriod suspending solution 98 % of control | dose: 250.0 mg/kg/injection, schedule: Q01DX009 (sc), vehicle: steriod suspending solution 97 % of control and 100 % of control | dose: 250.0 mg/kg/injection, schedule: Q01DX010 (sc), vehicle: saline 91 % of control | dose: 250.0 mg/kg/injection, schedule: Q01DX010 (sc), vehicle: steriod suspending solution 102 % of control | dose: 500.0 mg/kg/injection, schedule: Q01DX009 (sc), vehicle: steriod suspending solution 97 % of control and 101 % of control | dose: 500.0 mg/kg/injection, schedule: Q01DX010 (sc), vehicle: saline 94 % of control | dose: 500.0 mg/kg/injection, schedule: Q01DX010 (sc), vehicle: steriod suspending solution 98 % of control

O=C(NC1CCCCC1)c1csnn1
inactive: [1] 89 % of control | [2] 97 % of control

Cc1cccc(C)c1NC(=O)NCc1ccco1
inactive: dose: 25.0 mg/kg/injection, schedule: Q04DX002 (ip), vehicle: Klucel (hydroxypropylcellulose) (HPC) 99 % of control | dose: 50.0 mg/kg/injection, schedule: Q04DX002 (ip), vehicle: Klucel (hydroxypropylcellulose) (HPC) 118 % of control | [3] 103 % of control | dose: 100.0 mg/kg/injection, schedule: Q04DX002 (ip), vehicle: Klucel (hydroxypropylcellulose) (HPC) 100 % of control and 103 % of control | [4] 103 % of control | [5] 107 % of control | [6] 100 % of control | [7] 102 % of control | dose: 400.0 mg/kg/injection, schedule: Q04DX003 (ip), vehicle: Klucel (hydroxypropylcellulose) (HPC) 93 % of control

N=c1c(-c2ccccc2)cc2ccccc2n1O
inactive: [1] 103 % of control | [2] 101 % of control | dose: 300.0 mg/kg/injection, schedule: Q01DX001 (ip), vehicle: other 98 % of control

COc1ccc(N=CC(=O)c2ccc(C)cc2)c([N+](=O)[O-])c1
inactive: dose: 100.0 mg/kg/injection, schedule: Q01DX001 (ip), vehicle: Klucel (hydroxypropylcellulose) (HPC) 107 % of control | dose: 200.0 mg/kg/injection, schedule: Q01DX001 (ip), vehicle: Klucel (hydroxypropylcellulose) (HPC) 104 % of control | dose: 400.0 mg/kg/injection, schedule: Q01DX001 (ip), vehicle: Klucel (hydroxypropylcellulose) (HPC) 95 % of control

CCN(CC)CCOC(=O)/C=C/c1ccc([N+](=O)[O-])o1
inactive: dose: 50.0 mg/kg/injection, schedule: Q01DX Z (ip), vehicle: saline 103 % of control | dose: 75.0 mg/kg/injection, schedule: Q01DX Z (ip), vehicle: saline 109 % of control | dose: 113.0 mg/kg/injection, schedule: Q01DX Z (ip), vehicle: saline 112 % of control

CCCCCCCCCCCCCCCCNC(=S)N/N=C(/C=C/c1ccccc1)C(=O)O
inactive: dose: 15.0 mg/kg/injection, schedule: Q01DX Z (ip), vehicle: carboxymethylcellulose (CMC) 101 % of control | dose: 30.0 mg/kg/injection, schedule: Q01DX Z (ip), vehicle: carboxymethylcellulose (CMC) 108 % of control | dose: 30.0 mg/kg/injection, schedule: Q01DX Z (oral), vehicle: carboxymethylcellulose (CMC) 112 % of control | dose: 60.0 mg/kg/injection, schedule: Q01DX Z (ip), vehicle: carboxymethylcellulose (CMC) 113 % of control | dose: 60.0 mg/kg/injection, schedule: Q01DX Z (oral), vehicle: carboxymethylcellulose (CMC) 111 % of control | dose: 120.0 mg/kg/injection, schedule: Q01DX Z (oral), vehicle: carboxymethylcellulose (CMC) 100 % of control and 101 % of control | dose: 240.0 mg/kg/injection, schedule: Q01DX Z (oral), vehicle: carboxymethylcellulose (CMC) 108 % of control and 109 % of control | dose: 480.0 mg/kg/injection, schedule: Q01DX Z (oral), vehicle: carboxymethylcellulose (CMC) 109 % of control | dose: 960.0 mg/kg/injection, schedule: Q01DX Z (oral), vehicle: carboxymethylcellulose (CMC) 113 % of control

CCOC(=O)C1CCC(C(=O)OCC)N1c1ccc(C=O)cc1 (stereo unspecified)
inactive: dose: 100.0 mg/kg/injection, schedule: Q01DX009 (sc), vehicle: olive oil, sesame oil, peanut oil 104 % of control | dose: 100.0 mg/kg/injection, schedule: Q04DX003 (sc), vehicle: olive oil, sesame oil, peanut oil 112 % of control | dose: 200.0 mg/kg/injection, schedule: Q01DX009 (sc), vehicle: olive oil, sesame oil, peanut oil 96 % of control | dose: 200.0 mg/kg/injection, schedule: Q04DX003 (sc), vehicle: olive oil, sesame oil, peanut oil 112 % of control | dose: 400.0 mg/kg/injection, schedule: Q01DX009 (sc), vehicle: olive oil, sesame oil, peanut oil 110 % of control | dose: 400.0 mg/kg/injection, schedule: Q04DX003 (sc), vehicle: olive oil, sesame oil, peanut oil 102 % of control

CNCCCN(C)CCCNC
inactive: [8] 100 % of control | [9] 96 % of control | [10] 101 % of control | [11] 104 % of control | [12] 94 % of control | [13] 99 % of control and 102 % of control

CCCCNC(C)(C)C(SS)c1ccc(C(F)(F)F)cc1 (stereo unspecified)
inactive: dose: 25.0 mg/kg/injection, schedule: Q01DX009 (ip), vehicle: other 96 % of control | dose: 25.0 mg/kg/injection, schedule: Q04DX003 (ip), vehicle: other 98 % of control | dose: 50.0 mg/kg/injection, schedule: Q01DX009 (ip), vehicle: other 94 % of control | dose: 50.0 mg/kg/injection, schedule: Q04DX003 (ip), vehicle: other 93 % of control | dose: 100.0 mg/kg/injection, schedule: Q01DX009 (ip), vehicle: other 98 % of control | dose: 100.0 mg/kg/injection, schedule: Q04DX003 (ip), vehicle: other 86 % of control

O=C(c1cccc(F)c1)C(F)(F)F
inactive: [3] 96 % of control | [5] 104 % of control | dose: 300.0 mg/kg/injection, schedule: Q01DX009 (ip), vehicle: Klucel (hydroxypropylcellulose) (HPC) 93 % of control

CN1C2CCC1CC(OC(=O)c1ccccc1)C2 (stereo unspecified)
inactive: dose: 25.0 mg/kg/injection, schedule: Q04DX002 (ip), vehicle: saline with Tween-80 94 % of control | dose: 50.0 mg/kg/injection, schedule: Q04DX002 (ip), vehicle: saline with Tween-80 105 % of control | dose: 100.0 mg/kg/injection, schedule: Q04DX002 (ip), vehicle: saline with Tween-80 94 % of control

CC(CCC(C)(C)O)C1CCC2C3C(O)CC4CCCCC4(C)C3CC(O)C12C (stereo unspecified)
inactive: dose: 100.0 mg/kg/injection, schedule: Q04DX003 (ip), vehicle: saline with Tween-80 89 % of control | dose: 200.0 mg/kg/injection, schedule: Q04DX003 (ip), vehicle: saline with Tween-80 91 % of control | dose: 400.0 mg/kg/injection, schedule: Q04DX003 (ip), vehicle: saline with Tween-80 88 % of control

CC(C)c1ccc(NCN2C(=O)c3ccccc3C2=O)cc1
inactive: [3] 100 % of control | [5] 103 % of control | [7] 101 % of control

O=P(CCCl)(CCCl)CCCl
inactive: [10] 87 % of control | [11] 98 % of control | [12] 87 % of control | [13] 106 % of control | dose: 200.0 mg/kg/injection, schedule: Q01DX009 (ip), vehicle: saline 90 % of control | dose: 200.0 mg/kg/injection, schedule: Q04DX003 (ip), vehicle: saline 101 % of control | dose: 400.0 mg/kg/injection, schedule: Q04DX003 (ip), vehicle: saline 101 % of control

CCCCCCCN(CCCCCCC)CC(O)c1cc2ccc(Cl)cc2c2cccnc12 (stereo unspecified)
inactive: dose: 50.0 mg/kg/injection, schedule: Q01DX009 (ip), vehicle: Klucel (hydroxypropylcellulose) (HPC) 98 % of control | [3] 96 % of control | [4] 102 % of control | [6] 104 % of control

NCCC(=O)OC1CCCc2c(O)c3c(c(O)c21)C(=O)c1ccccc1C3=O (stereo unspecified)
inactive: dose: 12.5 mg/kg/injection, schedule: Q04DX003 (ip), vehicle: saline 93 % of control | [8] 93 % of control | [9] 95 % of control | [10] 97 % of control | [11] 98 % of control | [13] 102 % of control

CCOc1ccc(/C=C/c2ccc(OCC)cc2)cc1
inactive: [3] 90 % of control | [5] 90 % of control | [7] 93 % of control
